We go through nine molecules from patent US6814969B2, “Immunologically significant herpes simplex virus antigens and methods for using same” (University of Washington, priority 2001, dated 2004).

Format in all cases: cell-based, human
Assay [1] relates to TCC 4.2E1. Description: T-cell proliferation ([3H]thymidine incorporation), TCC 4.2E1. The following applies: FIG. 3; peptides used at 3 μM; autologous EBV-LCL APC. Here is the method:
(§1) Triplicate proliferation assay wells contained 10^4 cloned T-cells, 10^5 irradiated (3300 rad) PBMC or 2.5×10^4 irradiated (8000 rad) EBV-LCL as antigen presenting cells (APC), and antigen in 200 μl T-cell media (D. M. Koelle et al., 1997, Human. Immunol., 53:195-205) in 96-well U-bottom plates. When heat-killed bacteria were used as antigen, the equivalent of 10^5 cfu/well (prior to inactivation) was added and gentamicin (20 μg/ml) was included. After 72 hours, 1 μCi/well ^[3]H thymidine was added for 18 hours, cells were harvested, and incorporation of thymidine evaluated by liquid scintillation counting. Standard deviations were less than 10% of the mean values. Results are reported as mean cpm or as delta cpm=mean cpm for experimental antigen minus mean cpm for control antigen. Control antigen was mock-infected cell lysate for whole viral antigens and pUEX2-derived β-galactosidase for recombinant protein preparations. To determine the reactivity of bulk-cultured lesion-derived T-cells, fusion proteins or control β-galactosidase were used at 10 μg/ml. […]

Assay [2] has as its system TCC 4.2E1. The assay can be described thus: Cytolysis assay (4-hour 51Cr release), CD4 TCC 4.2E1. To be noted: E:T 20:1. As to the method:
(§2) Cytolysis assays were performed in triplicate using 4-hour [^51]Cr release as described (D. M. Koelle et al., 1993, J. Clin. Invest., 91:961-968). […] W. Kwok et al., 1996,J. Exp. Med., 183:1253-1258). The effector to target ratio was 20:1. Spontaneous release was less than 28%.

In assay [3] the test system is lesion-derived T cells. The assay can be described thus: Recognition of ICP0 epitopes by lesion-derived T cells. The following applies: 743-751: CD8+ T cells, HLA allele B*0702. The text has this: The recognition event involves HLA allele B*0702, which is relatively common (approximately 10%) in the human population.
In assay [4] the test system is TCC 1A.B.25. Description: T-cell proliferation, TCC 1A.B.25. The following applies: VP16 1-492 at 1 μg/ml, β-gal-VP16 180-492 at 1:1,000, peptides at 1 μM. Here is the method: (§3) Triplicate proliferation assay wells contained 10^4 cloned T-cells, 10^5 irradiated (3300 rad) PBMC or 2.5×10^4 irradiated (8000 rad) EBV-LCL as antigen presenting cells (APC), and antigen in 200 μl T-cell media (D. M. Koelle et al., 1997, Human. Immunol., 53:195-205) in 96-well U-bottom plates. When heat-killed bacteria were used as antigen, the equivalent of 10^5 cfu/well (prior to inactivation) was added and gentamicin (20 μg/ml) was included. After 72 hours, 1 μCi/well ^[3]H thymidine was added for 18 hours, cells were harvested, and incorporation of thymidine evaluated by liquid scintillation counting. Standard deviations were less than 10% of the mean values. Results are reported as mean cpm or as delta cpm=mean cpm for experimental antigen minus mean cpm for control antigen. Control antigen was mock-infected cell lysate for whole viral antigens and pUEX2-derived β-galactosidase for recombinant protein preparations. To determine the reactivity of bulk-cultured lesion-derived T-cells, fusion proteins or control β-galactosidase were used at 10 μg/ml. To determine HLA restricting loci, HLA DR-specific mAb L243 (V. G. Preston et al., 1978, J. Virol., 28:499-517), HLA DP-specific mAb B7.21 (A. J. Watson et al., 1983, Nature, 304:358-360), or HLA DQ-specific mAb SpV-L3 (H. Spits et al., 1984, Eur. J. Immunol., 14:299-304) were used as described (D. M. Koelle et al., 1994, J. Virol. 68:2803-2810).

Assay [5] relates to TCC 1A.B.25. The assay can be described thus: Cytolysis assay (4-hour 51Cr release), CD4 TCC 1A.B.25. The following applies: HSV-2 infected or 1 μM peptide, E:T 20:1. As to the method: as §2
Assay [6] relates to TCC ESL4.34. Description: T-cell proliferation, TCC ESL4.34. The following applies: VP16 1-492 at 1 μg/ml, β-gal-VP16 180-492 at 1:1,000, peptides at 1 μM. As to the method:
as §3

Assay [7] has as its system TCC ESL4.34. Description: Cytolysis assay (4-hour 51Cr release), CD4 TCC ESL4.34. To be noted: HSV-2 infected or 1 μM peptide, E:T 10:1. Here is the method: Cytolysis assays were performed in triplicate using 4-hour [^51]Cr release as described (D. M. Koelle et al., 1993, J. Clin. Invest., 91:961-968). […] W. Kwok et al., 1996,J. Exp. Med., 183:1253-1258). […] Spontaneous release was less than 28%.

In assay [8] the test system is TCC ESL3.334. The assay can be described thus: T-cell proliferation, TCC ESL3.334. The following applies: VP16 1-492 at 1 μg/ml, β-gal-VP16 180-492 at 1:1,000, peptides at 1 μM. Here is the method: as §3
Assay [9] relates to TCC ESL3.334. Description: Cytolysis assay (4-hour 51Cr release), CD4 TCC ESL3.334. To be noted: HSV-2 infected or 1 μM peptide, E:T 20:1. Here is the method: as §2
The test system of assay [10] is TCC RH.13. Description: T-cell proliferation, TCC RH.13. Here is the method: as §3
Three epitopes within VP16, all HSV-2 type-specific were previously identified (K. R. Jerome et al., 1998, J. Virol., 72:436-441), and proliferative responses to full-length VP16 in bulk cultures of genital HSV-2 lesion-infiltrating lymphocytes from four of seven (57%) patients were detected (D. M. Koelle et al., 1998, J. Clin. Invest., 101:1500-09). Additional peptide epitopes were sought within VP16 by two strategies. The first strategy involved screening panels of clones recovered from lesion vesicle fluid for reactivity with recombinant VP16 of HSV-2 followed by epitope mapping with peptides. […]

Assay [11] has as its system TCC RH.13. The assay can be described thus: Cytolysis assay (4-hour 51Cr release), CD4 TCC RH.13. To be noted: HSV-2 infected or 1 μM peptide, E:T 20:1. Here is the method: as §2
Assay [12] deals with TCC KM.7. The assay can be described thus: T-cell proliferation, TCC KM.7. The following applies: VP16 1-492 at 1 μg/ml, β-gal-VP16 180-492 at 1:1,000, peptides at 1 μM. As to the method: as §1, with “preparations.” for “preparations. To determine the reactivity of bulk-cultured lesion-derived T-cells, fusion proteins or control β-galactosidase were used at 10 μg/ml.”
(§4) Three epitopes within VP16, all HSV-2 type-specific were previously identified (K. R. Jerome et al., 1998, J. Virol., 72:436-441), and proliferative responses to full-length VP16 in bulk cultures of genital HSV-2 lesion-infiltrating lymphocytes from four of seven (57%) patients were detected (D. M. Koelle et al., 1998, J. Clin. Invest., 101:1500-09). […]

For assay [13], the system named is TCC KM.7. Description: Cytolysis assay (4-hour 51Cr release), CD4 TCC KM.7. The following applies: HSV-2 infected or 1 μM peptide, E:T 20:1. Here is the method: as §2
Assay [14] concerns bulk cultures of lesion-infiltrating T-cells. Description: Reactivity of bulk cultures of lesion-infiltrating T-cells with HSV antigens. The following applies: four biopsies, day 5 of a buttock recurrence of HSV-2, patient 1; fusion proteins at 10 μg/ml. Here is the method:
as §1

In assay [15] the test system is TCC BM.17. The assay can be described thus: T-cell proliferation, TCC BM.17. To be noted: VP16 1-492 at 1 μg/ml, β-gal-VP16 180-492 at 1:1,000, peptides at 1 μM. Here is the method:
as §1, with “preparations.” for “preparations. To determine the reactivity of bulk-cultured lesion-derived T-cells, fusion proteins or control β-galactosidase were used at 10 μg/ml.”
as §4

Assay [16] concerns TCC SB.17. The assay can be described thus: T-cell proliferation, TCC SB.17. The following applies: VP16 1-492 at 1 μg/ml, β-gal-VP16 180-492 at 1:1,000, peptides at 1 μM. As to the method:
as §1, with “preparations.” for “preparations. To determine the reactivity of bulk-cultured lesion-derived T-cells, fusion proteins or control β-galactosidase were used at 10 μg/ml.”
as §4

Setting [17] is: allogeneic mismatched EBV-LCL targets.

Consider “GGPVGAGGRSHAPPARTPKMTR (GGPVGAGGRSHAPARTPKMTR) [VP22 105-126]”, for which the “stimulation of TCC 4.2E1 by overlapping peptides” value in assay [1] is “stimulatory”. The percent specific release is −1.7% in [2] (allogeneic mismatched EBV-LCL targets, HSV-2 infected or 1 μM peptide) and 44.2% in assay [2] (autologous EBV-LCL targets, HSV-2 infected or loaded with 1 μM peptide).

“ICP0 743-751: amino acids 743-751 of ICP0 (QGTLVGALD; UniProt P08393 743-751, looked up, fragment)”: the “recognition by lesion-derived T cells” value in assay [3] is “specific recognition”.

As for “VP16 431-440: previously reported HSV-2 VP16 peptide epitope, amino acids 431-440 (EVDMTPADAL; UniProt P68336 431-440, looked up, fragment)”, in [4], the “delta cpm [3H] thymidine incorporation compared to media” value (shortened to “delta cpm … compared to media”) is given as 38,664 cpm. The percent specific release is recorded as 2.1% in [5] (setting [17]) and 42.2% in assay [5] (autologous EBV-LCL targets).

As for “VP16 393-405: previously reported HSV-2 VP16 peptide epitope, amino acids 393-405 (LVAPRMSFLSAGQ; UniProt P68336 393-405, looked up, fragment)”, the “delta cpm … compared to media” value in assay [6] was 95,942 cpm. Besides, the percent specific release in [7] (setting [17]) worked out at 0.6%; in assay [7] (autologous EBV-LCL targets) it was 10.4%.

As for “VP16 430-444: previously reported HSV-2 VP16 peptide epitope, amino acids 430-444 (EEVDMTPADALDDFD; UniProt P68336 430-444, looked up, fragment)”, in assay [8], the “delta cpm … compared to media” value was 27,283 cpm. In addition, the percent specific release in assay [9] (setting [17]) is on record as 0.3%; in [9] (autologous EBV-LCL targets) it was 33.6%.

As to “VP16 185-197: HSV-2 VP16 (UL48) peptide, amino acids 185-197”, the “delta cpm … compared to media” value in assay [10] (TCC RH.13, VP16 1-492 at 1 μg/ml, β-gal-VP16 180-492 at 1:1,000, peptides at 1 μM) is on record as 55,614 cpm. In assay [10] (epitope mapping with peptides), the “stimulation of TCC RH.13 by VP16 peptides” value is on record as “stimulatory”. In addition, the values for the percent specific release in assay [11] (setting [17]) and in [11] (autologous EBV-LCL targets) were 0.3% and 55.2%, respectively.

With “VP16 209-221: HSV-2 VP16 (UL48) peptide, amino acids 209-221”, the “delta cpm … compared to media” value in assay [12] is recorded as 10,075 cpm. Also, the percent specific release worked out at 4.3% in assay [13] (setting [17]) and 43.6% in [13] (autologous EBV-LCL targets).

B1: VP22 105-190: fusion protein containing VP22 amino acids 105-190 (protein)
chain: GGPVGAGGRSHAPPARTPKMTRGAPKASATPATDPARGRRPAQADSAVLLDAPAPTASGRTKTPAQGLAKKLHFSTAPPSPTAPWT
modifications: left off: large carriers
Consider B1, for which the “reactivity of bulk lesion-infiltrating T-cell cultures” value in assay [14] is “showed reactivity”.

B2: β-gal-VP16 180-492: β-galactosidase fusion protein with HSV-2 VP16 180-492 (protein)
chain: YLRASVRQLHRQAHMRGRNRDLREMLRTTIADRYYRETARLARVLFLHLYLFLSREILWAAYAEQMMRPDLFDGLCCDLESWRQLACLFQPLMFINGSLTVRGVPVEARRLRELNHIREHLNLPLVRSAAAEEPGAPLTTPPVLQGNQARSSGYFMLLIRAKLDSYSSVATSEGESVMREHAYSRGRTRNNYGSTIEGLLDLPDDDDAPAEAGLVAPRMSFLSAGQRPRRLSTTAPITDVSLGDELRLDGEEVDMTPADALDDFDLEMLGDVESPSPGMTHDPVSYGALDVDDFEFEQMFTDAMGIDDFGG
modifications: left off: large carriers
Regarding B2, the “delta cpm … compared to media” value in assay [15] is on record as 45,958 cpm; in [16], 12,178 cpm; in [8], 16,434 cpm; in assay [4] it was 41,123 cpm.
